Assay results reported in patent US4375513A, “Biologically pure culture of Actinoplanes missouriensis” (Eli Lilly and Company, priority 1981, dated 1983).
Where a name gives a salt, the structure may show the parent alone.

What was measured:
[1] = test system: Actinoplanes Strain ATCC 31680; test: antibiotic sensitivity of Actinoplanes strain ATCC 31680; format: cell-based, Actinoplanes missouriensis
Experimental: (§1) The methods used for the taxonomic studies of strains ATCC 31680, ATCC 31682, and ATCC 31683 are well known to those skilled in the art and in large part are methods recommended for the International Streptomyces Project (ISP), described by Shirling and Gottlieb, 1966, Intern. J. of Systematic Bacteriol. 16(3):313-340. Enzyme assays were carried out according to the methods of Blazevic and Ederer, 1975, Principles of Biochemical Tests in Diagnostic Microbiology, John Wiley and Sons. Inc., New York, and color names, abbreviations, and numbers were assigned using the ISCC-NBS method of Kelly and Judd, 1976, The ISCC-NBS Centroid Color Charts Standard Sample No. 2106, U.S. Dept. of Commerce, National Bureau of Standards, Washington D.C. Lysozyme resistance and the decomposition of casein, esculin, hypoxanthine, tyrosine, and xanthine were measured using the procedure of Berg, 1973, Appl. Microbiol. 25:665-681. Carbon utilization studies were also completed and are stored as follows: […]

[2] = test system: Actinoplanes Strain ATCC 31682; test: antibiotic sensitivity of Actinoplanes strain ATCC 31682; format: cell-based, Actinoplanes missouriensis
Experimental: as §1

[3] = test system: Actinoplanes Strain ATCC 31683; test: antibiotic sensitivity of Actinoplanes strain ATCC 31683; format: cell-based, Actinoplanes missouriensis
Experimental: as §1

[4] = bioautography of aglycone formation during hydrolysis; format: cell-based; conditions: during hydrolysis of A-4696 complex and individual factors
Text: An additional factor, designated as E1, can also be isolated from the antibiotic A-4696 complex and may represent a degradation product. The chemical, physical, and biological properties of the factors indicate that they are new antibiotics and, except possibly for factor E1, that they are composed of the same peptide core (aglycone) and amino sugar, and varying amounts of glucose, mannose, and rhamnose. […] It is possible that the site of antimicrobial activity of the A-4696 complex and individual factors resides in the peptide pseudo-aglycone, with the factors being substantially differentiated by differences in their neutral sugar composition. The attached sugars may function chiefly to modulate solubility and other important pharmacodynamic parameters.

SMILES | Antibiotic sensitivity ([1]; 30 μg.) | Antibiotic sensitivity ([2]; 30 μg.) | Antibiotic sensitivity ([3]; 30 μg.) | other results
CC(=O)OCC1=C(C(=O)O)N2C(=O)[C@@H](NC(=O)Cc3cccs3)[C@H]2SC1 [Cephalothin (sodium)] | Sensitive | Sensitive | Sensitive | –
O=C(N[C@H](CO)[C@H](O)c1ccc([N+](=O)[O-])cc1)C(Cl)Cl [Chloromycetin] | Sensitive | Sensitive | Sensitive | –
CCC(=O)O[C@H]1[C@H](O[C@@H]2[C@@H](C)[C@H](O[C@H]3C[C@@](C)(OC)[C@@H](O)[C@H](C)O3)[C@@H](C)C(=O)O[C@H](CC)[C@@](C)(O)[C@H](O)[C@@H](C)C(=O)[C@H](C)C[C@@]2(C)O)O[C@H](C)C[C@@H]1N(C)C [Erythromycin (estolate)] | – | – | – | Antibiotic sensitivity ([1]; 15 μg.): Sensitive; Antibiotic sensitivity ([2]; 15 μg.): Sensitive; Antibiotic sensitivity ([3]; 15 μg.): Sensitive
CO[C@@H]1[C@@H](OC(N)=O)[C@@H](O)[C@H](Oc2ccc3c(O)c(NC(=O)c4ccc(O)c(CC=C(C)C)c4)c(=O)oc3c2C)OC1(C)C [Novobiocin] | Sensitive | Sensitive | Sensitive | –
CC1(C)S[C@@H]2[C@H](NC(=O)Cc3ccccc3)C(=O)N2[C@H]1C(=O)O [Penicillin (G)] | – | – | – | Antibiotic sensitivity ([1]; 10 units): Sensitive; Antibiotic sensitivity ([2]; 10 units): Sensitive; Antibiotic sensitivity ([3]; 10 units): Sensitive
CO[C@H]1/C=C/O[C@@]2(C)Oc3c(C)c(O)c4c(O)c(c(/C=N/N5CCN(C)CC5)c(O)c4c3C2=O)NC(=O)/C(C)=C\C=C\[C@H](C)[C@H](O)[C@@H](C)[C@@H](O)[C@@H](C)[C@H](OC(C)=O)[C@@H]1C [Rifampin] | – | – | – | Antibiotic sensitivity ([1]; 5 μg.): Sensitive; Antibiotic sensitivity ([2]; 5 μg.): Sensitive; Antibiotic sensitivity ([3]; 5 μg.): Sensitive
[H]/N=C(/N)N[C@H]1[C@H](O)[C@@H](O)[C@H](O[C@@H]2O[C@@H](C)[C@](O)(C=O)[C@H]2O[C@@H]2O[C@@H](CO)[C@H](O)[C@@H](O)[C@@H]2NC)[C@@H](N/C(N)=N\[H])[C@@H]1O [Streptomycin] | – | – | – | Antibiotic sensitivity ([1]; 10 μg.): Sensitive; Antibiotic sensitivity ([2]; 10 μg.): Sensitive; Antibiotic sensitivity ([3]; 10 μg.): Sensitive
CN(C)C1C(=O)C(C(N)=O)=C(O)C2(O)C(=O)C3=C(O)c4c(O)cccc4C(C)(O)C3CC12 (stereo not shown) [Tetracycline] | Sensitive | Sensitive | Sensitive | –
CN[C@H](CC(C)C)C(=O)N[C@H]1C(=O)N[C@@H](CC(N)=O)C(=O)N[C@H]2C(=O)N[C@H]3C(=O)N[C@H](C(=O)N[C@H](C(=O)O)c4cc(O)cc(O)c4-c4cc3ccc4O)[C@H](O)c3ccc(c(Cl)c3)Oc3cc2cc(c3O[C@@H]2O[C@H](CO)[C@@H](O)[C@H](O)[C@H]2O[C@H]2C[C@](C)(N)[C@H](O)[C@H](C)O2)Oc2ccc(cc2Cl)[C@H]1O [Vancomycin HCl] | Sensitive | Sensitive | Sensitive | –
COC(=O)C1NC(=O)C2NC(=O)C(NC(=O)C3NC(=O)C4NC(=O)C(Cc5ccc(cc5)Oc5cc3cc(c5O)Oc3ccc(cc3Cl)C2OC2CC(N)C(O)C(C)O2)NC(=O)C(N)c2ccc(O)c(c2)Oc2cc4cc(O)c2C)c2ccc(O)c(c2)-c2c(O)cc(O)cc21 (stereo not shown) [pseudo-aglycone] | – | – | – | antimicrobial activity (bioautography) [4]: antimicrobially active
